Measurements from US20120245180A1, “COMBINATION” (GlaxoSmithKline LLC, priority 2009, published 2012).
Read-outs that look alike come from different tables or passages of the source. Each block holds one compound with its values, some of them ahead of it.

Legend:
[1] = tested on: BT483; experiment: Cell growth inhibition assay, breast tumor cell line (Cell Titer Glo); format: cell-based; conditions: Homo sapiens, BT-483, 72 h, BT483 (HER2−), 3 days
Experimental: (§1) Human tumor cell lines from hepatocellular carcinoma (HCC), C3A, Hep3B, HepG2, PLC/PRF/5, SNU182, SNU387, SNU398, SNU423, SNU449 and SNU475 were purchased from the ATCC. Human breast tumor cell lines, HCC2218, HCC1419, BT-474, SK-BR-3, UACC893, JIMT-1, MDA-MB-361, HCC202, MDA-MB-175-VII, HCC1569, HCC1937, HCC38, MDA-MB-157, HCC1954, HCC1500, BT483, KPL-1, SUM225 and ZR-75-1 from ATCC, SUM52 and SUM190 from Asterand, PLC (Detroit Mich.), were cultured in RPMI 1640 medium containing 10% FBS; SKBR3-W13 and BT-474-J4 cultured in RPMI 1640 medium containing 10% FBS and 1 μM lapatinib; KPL4 line was kindly provided by Dr Junichi Kurebayashi (Kawasaki Medical School, Okayama, Japan) and cultured in DMEM containing 5% FBS. JIMT-1 from European Collection of Cell Cultures (UK), is a line derived from a patient clinically resistant to trastuzumab (Herceptin®). SK-BR-3-W13 is a single cell clone isolated by a cloning cylinder after a single treatment of SK-BR-3 cells with 0.5 μM lapatinib. BT-474-J4 is a single cell clone derived from a pool of BT-474 cells that were selected to grow in lapatinib to a concentration of 3 μM.
(§2) Cells were seeded in a 96-well tissue culture plate (NUNC 136102) of RPMI medium containing 10% FBS at 500-2,000 cells per well. Approximately 24 hours after plating, cells were exposed to ten, two-fold or three-fold serial dilutions of either Compound A or B or the combination of the two agents at a 2:1 molar ratio (Compounds A and B respectively). In some cases, cells were grown in RPMI media containing 10% FBS and in the presence or absence of 2 ng/mL hepatocyte growth factor (HGF). Cells were incubated in the presence of compounds for 3 days. ATP levels were determined by adding Cell Titer Glo® (Promega) according to the manufacturer's protocol. Briefly, Cell Titer Glo® was added to each plate, incubated for 20 minutes then luminescent signal was read on the SpectraMax L plate reader with a 0.5 sec integration time. All assays were run at least in duplicate.
(§3) Inhibition of cell growth was estimated after treatment with compound or combination of compounds for three days and comparing the signal to cells treated with vehicle (DMSO). Cell growth was calculated relative to vehicle (DMSO) treated control wells. Concentration of compound that inhibits 50% of control cell growth (IC50) was back-interpolated when y=50% of DMSO treated control wells using nonlinear regression with the equation: […]
(§4) where A is the minimum response (ymin), B is the maximum response (Ymax), C is the inflection point of the curve (EC50) and D is the Hill coefficient.
(§5) Combination effects on potency were evaluated using the Combination Index (CI) and Excess Over Highest Single Agent (EHOSA) methods.
(§6) DNA Copy number data on the HER2 gene was collected for all breast cancer cell lines using the Affymetrix 500K chip (Affymetrix Inc, Sunnyvale, Calif.). Briefly DNA was extracted from each line, digested with the restriction enzyme Nsp or Sty, ligated to an adaptor and amplified by PCR. After PCR, DNA was fragmented, labeled, denatured, and hybridized to the Affymetrix 500K chip. Upon completion of hybridization, each assay was washed and stained. Image data were acquired. Similarly collected data from a panel 10 diploid non-tumorigenic lymphoblastic cell lines were used to calculate DNA copy number. All ‘SNP Chip’ images ('CEL files'), were extracted, read and normalized using the dChip software package (Lin et al. 2004. Bioinformatics. 20:1233-40). SNP-wise ‘copy-number ratios’ (log2 scale) were calculated for all cancer cell lines using the lymphoblastic reference panel and analyzed by circular binary segmentation to reduce noise (Olshen et al. 2004. Biostatistics. 5:557-72). Cell lines with log2 ratios of HER2>0.65 were considered HER2+.

[2] = tested on: HCC1419; experiment: as above; format: cell-based; conditions: Homo sapiens, 72 h, HCC1419 (HER2+), 3 days
Experimental: as §1, §2, §3, §4, §5, §6

[3] = tested on: HCC1937; experiment: as above; format: cell-based; conditions: Homo sapiens, 72 h, HCC1937 (HER2−), 3 days
Experimental: as §1, §2, §3, §4, §5, §6

[4] = tested on: HCC2218; experiment: as above; format: cell-based; conditions: Homo sapiens, 72 h, HCC2218 (HER2+), 3 days
Experimental: as §1, §2, §3, §4, §5, §6

[5] = tested on: MDA-MB-157; experiment: as above; format: cell-based; conditions: Homo sapiens, 72 h, MDA-MB-157 (HER2−), 3 days
Experimental: as §1, §2, §3, §4, §5, §6

[6] = tested on: MDA-MB-175-VII; experiment: as above; format: cell-based; conditions: Homo sapiens, 72 h, MDA-MB-175-VII (HER2−), 3 days
Experimental: as §1, §2, §3, §4, §5, §6

[7] = tested on: MDA-MB-361; experiment: as above; format: cell-based; conditions: Homo sapiens, 72 h, MDA-MB-361 (HER2+), 3 days
Experimental: as §1, §2, §3, §4, §5, §6

[8] = tested on: SUM190; experiment: as above; format: cell-based; conditions: Homo sapiens, 72 h, SUM190 (HER2+), 3 days
Experimental: as §1, §2, §3, §4, §5, §6

[9] = tested on: SUM225; experiment: as above; format: cell-based; conditions: Homo sapiens, 72 h, SUM225 (HER2+), 3 days
Experimental: as §1, §2, §3, §4, §5, §6

[10] = tested on: hepatocellular carcinoma (HCC) cell lines; experiment: Cell growth inhibition, panel of 10 HCC cell lines; format: cell-based, human; conditions: for IC50: Homo sapiens
Experimental: as §1, §2, §3, §4, §5

[11] = tested on: Human breast tumor cell lines; experiment: Cell growth inhibition, panel of breast tumor cell lines; format: cell-based
Experimental: Human tumor cell lines from hepatocellular carcinoma (HCC), C3A, Hep3B, HepG2, PLC/PRF/5, SNU182, SNU387, SNU398, SNU423, SNU449 and SNU475 were purchased from the ATCC. […]
Cells were seeded in a 96-well tissue culture plate (NUNC 136102) of RPMI medium containing 10% FBS at 500-2,000 cells per well. […] ATP levels were determined by adding Cell Titer Glo® (Promega) according to the manufacturer's protocol. Briefly, Cell Titer Glo® was added to each plate, incubated for 20 minutes then luminescent signal was read on the SpectraMax L plate reader with a 0.5 sec integration time. […]
Inhibition of cell growth was estimated after treatment with compound or combination of compounds for three days and comparing the signal to cells treated with vehicle (DMSO). Cell growth was calculated relative to vehicle (DMSO) treated control wells. […]
as §5
DNA Copy number data on the HER2 gene was collected for all breast cancer cell lines using the Affymetrix 500K chip (Affymetrix Inc, Sunnyvale, Calif.). […] All ‘SNP Chip’ images ('CEL files'), were extracted, read and normalized using the dChip software package (Lin et al. 2004. Bioinformatics. 20:1233-40). […]

[12] = tested on: SK-BR-3-W13; experiment: Cell growth inhibition assay, breast tumor cell line (Cell Titer Glo); format: cell-based; conditions: Homo sapiens, 72 h; SK-BR-3-W13 (HER2+), 3 days; read-out: Single agent IC50, Compound A
Experimental: as §1, §2, §3, §4, §5, §6

[13] = read-out: Single agent IC50, Compound B
[14] = read-out: Single agent IC50, Compound A

IC50 [1, 13]: 106 ± 81 nM
IC50 [2, 13]: 24 ± 14 nM
IC50 [3, 13]: 114 ± 63 nM
IC50 [4, 13]: 18 ± 13 nM
IC50 [5, 13]: > 1000 nM
IC50 [6, 13]: 7 ± 1 nM
IC50 [7, 13]: 9 ± 2 nM
IC50 [8, 13]: 6 ± 3 nM
IC50 [9, 13]: 13 ± 14 nM
IC50 ([10]; all 10 HCC lines): < 103 nM
IC50 ([11]; all lines except HCC1937, SK-Br-3-W13 and MDA-MB-157): < 100 nM
SMILES: COc1ncc(-c2ccc3nccc(-c4ccnnc4)c3c2)cc1NS(=O)(=O)c1ccc(F)cc1F [Compound B, 2,4-difluoro-N-{2-(methyloxy)-5-[4-(4-pyridazinyl)-6-quinolinyl]-3-pyridinyl}benzenesulfonamide]

IC50 [1, 14]: > 1000 nM
IC50 [2, 14]: > 1000 nM
IC50 [3, 14]: > 1000 nM
IC50 [4, 14]: > 1000 nM
IC50 [5, 14]: > 1000 nM
IC50 [6, 14]: 99 ± 97 nM
IC50 [7, 14]: > 1000 nM
IC50 [12]: > 1000 nM
IC50 [8, 14]: > 1000 nM
IC50 [9, 14]: > 1000 nM
IC50 ([10]; SNU 182 and PLC/PRF/5 epithelial-like cell lines): 1200 to 2800 nM
IC50 ([10]; epithelial-like HCC cell lines HepG2, C3A and Hep3B): < 37 nM
IC50 ([10]; mesenchymal-like HCC cell lines SNU387 and SNU423): 74 to 577 nM
IC50 ([11]; SUM52 and MDA-MB-17511): ≤ 99 nM
SMILES: CC(=O)Nc1cccc(-n2c(=O)n(C3CC3)c(=O)c3c(Nc4ccc(I)cc4F)n(C)c(=O)c(C)c32)c1 [Compound A, N-{3-[3-cyclopropyl-5-[(2-fluoro-4-iodophenyl)amino]-6,8-dimethyl-2,4,7-trioxo-3,4,6,7-tetrahydropyrido[4,3-d]pyrimidin-1(2H)-yl]phenyl}acetamide]
sensitivity to cell growth inhibition ([10]; mesenchymal-like cell lines SNU398, SNU449 and SNU475): not sensitive
